Laboratory results reported in ChEMBL document CHEMBL4706484, “Apigenin-rivastigmine hybrids as multi-target-directed liagnds for the treatment of Alzheimer's disease” (Eur J Med Chem, 2020).
The source made the active and inactive calls. The calls are words filed in the database; no cut-off is given here.

Experiments:
[1] = Antioxidant activity of compound assessed as trolox equivalent antioxidant capacity by ORAC-FL assay; type: functional
[2] = target: T1, Acetylcholinesterase (Rattus norvegicus, UniProt P37136); assay: Inhibition of rat cortex AChE using acetylthiocholine iodide as substrate measured after 15 mins by Ellman's method; type: tissue-based
T1 sequence (P37136 whole entry): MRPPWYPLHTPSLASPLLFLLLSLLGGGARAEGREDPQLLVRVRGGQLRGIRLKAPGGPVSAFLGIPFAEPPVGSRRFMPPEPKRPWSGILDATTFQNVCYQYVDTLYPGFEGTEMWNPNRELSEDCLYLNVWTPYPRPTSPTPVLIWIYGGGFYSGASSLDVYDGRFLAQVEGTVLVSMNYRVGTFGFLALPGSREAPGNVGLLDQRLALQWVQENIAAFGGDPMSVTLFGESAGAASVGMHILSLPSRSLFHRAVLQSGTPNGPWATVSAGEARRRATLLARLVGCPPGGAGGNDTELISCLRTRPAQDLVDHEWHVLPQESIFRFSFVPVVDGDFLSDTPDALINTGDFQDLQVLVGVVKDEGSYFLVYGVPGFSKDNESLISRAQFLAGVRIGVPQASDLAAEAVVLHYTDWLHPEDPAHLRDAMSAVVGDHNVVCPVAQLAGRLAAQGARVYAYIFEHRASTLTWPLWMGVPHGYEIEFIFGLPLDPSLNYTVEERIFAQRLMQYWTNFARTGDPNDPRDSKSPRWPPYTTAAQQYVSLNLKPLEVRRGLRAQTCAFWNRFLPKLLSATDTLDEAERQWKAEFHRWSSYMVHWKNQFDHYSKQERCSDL

[3] = target: Butyrylcholinesterase (Rattus norvegicus, UniProt Q9JKC1); assay: Inhibition of rat serum BChE using acetylthiocholine iodide as substrate measured after 15 mins by Ellman's method; type: cell-free
[4] = target: T2, Acetylcholinesterase (Homo sapiens, UniProt P22303); assay: Inhibition of human erythrocytes AChE using acetylthiocholine iodide as substrate measured after 15 mins by Ellman's method; type: tissue-based, Erythrocyte
[5] = target: T3, Cholinesterase (Homo sapiens, UniProt P06276); assay: Inhibition of human serum BChE using acetylthiocholine iodide as substrate measured after 15 mins by Ellman's method; type: cell-free
[6] = target: Amyloid-beta precursor protein (Homo sapiens) (UniProt P05067); assay: Inhibition of self-induced amyloid beta (1 to 42) (unknown origin) aggregation at 25 uM by ThT fluorescence assay relative to control
[7] = Permeability of the compound in PBS/EtOH (70:30) at 100 ug/ml by PAMPA-BBB assay; type: ADME; settings: dose 100 µg/ml, read-out: permeability
[8] = system: PC-12; assay: Neuroprotective activity against H2O2-induced cell injury in rat PC-12 cells assessed as increase in cell viability causing decrease in LDH content preincubated for 2 hrs followed by H2O2 addition and measured after 24 hrs by LDH assay; type: functional, cell-based; settings: dose 5-10 µM, time 26.0 hrs
[9] = system: PC-12; assay: Neuroprotective activity against H2O2-induced cell injury in rat PC12 cells assessed as cell viability preincubated for 2 hrs followed by H2O2 addition and measured after 24 hrs by MTT assay (reference value: 53.8 %); type: functional; settings: time 26 hrs
[10] = target: Amyloid-beta precursor protein (Homo sapiens) (UniProt P05067); assay: Disaggregation of self-induced amyloid beta (1 to 42) (unknown origin) preformed fibrils at 25 uM by ThT fluorescence assay relative to control
[11] = target: Amyloid-beta precursor protein (Homo sapiens) (UniProt P05067); assay: Inhibition of self-induced amyloid beta (1 to 42) (unknown origin) aggregation at 25 uM measured after 24 hrs by TEM analysis
[12] = target: Amyloid-beta precursor protein (Homo sapiens) (UniProt P05067); assay: Disaggregation of self-induced amyloid beta (1 to 42) (unknown origin) preformed fibrils at 25 uM measured after 48 hrs by TEM analysis
[13] = system: PC-12; assay: Cytotoxicity against rat PC-12 cells assessed as reduction in cell viability <= 100 uM measured after 48 hrs by MTT assay; type: cell-based; settings: pc-12, 48 h
[14] = Metal chelating activity assessed as Fe2+-compound complex formation at 37.5 uM in presence of 37.5 uM FeSO4 by UV-Vis spectrophotometric analysis
[15] = Metal chelating activity assessed as Zn2+-compound complex formation at 37.5 uM in presence of 37.5 uM ZnCl2 by UV-Vis spectrophotometric analysis
[16] = Metal chelating activity assessed as Cu2+-compound complex formation at 37.5 uM in presence of 37.5 uM CuCl2 by UV-Vis spectroscopic analysis
[17] = Metal chelating activity assessed as Al3+-compound complex formation at 37.5 uM in presence of 37.5 uM AlCl3 by UV-Vis spectrophotometric analysis
[18] = Cytotoxicity against human L02 cells assessed as cell viability at 6.25 uM measured after 72 hrs by MTT assay relative to control; type: cell-based; settings: read-out: Activity
[19] = Cytotoxicity against human L02 cells assessed as cell viability at 12.5 uM measured after 72 hrs by MTT assay relative to control; type: cell-based; settings: read-out: Activity
[20] = Cytotoxicity against human L02 cells assessed as cell viability at 25 uM measured after 72 hrs by MTT assay relative to control; type: cell-based; settings: read-out: Activity
[21] = Cytotoxicity against human L02 cells assessed as cell viability at 50 uM measured after 72 hrs by MTT assay relative to control; type: cell-based; settings: read-out: Activity
[22] = system: L02; assay: Hepatoprotective activity H2O2-induced cell injury in human L02 cells assessed as cell viability at 10 uM measured after 48 hrs by MTT assay (reference value: 56.89 %); type: functional; settings: read-out: Activity
[23] = Drug metabolism in rat liver microsomes assessed as metabolite formation by UPLC-MS/MS analysis; type: ADME, Microsome
[24] = Drug metabolism in human liver microsomes assessed as metabolite formation by UPLC-MS/MS analysis; type: ADME, Microsome
[25] = Drug metabolism in rat intestine assessed as metabolite formation by UPLC-MS/MS analysis; type: ADME, tissue-based
[26] = Inhibition of copper-induced amyloid beta (1 to 42) (unknown origin) aggregation at 25 uM by ThT fluorescence assay relative to control
[27] = Disaggregation of Copper-induced amyloid beta (1 to 42) (unknown origin) preformed fibrils at 25 uM by ThT fluorescence assay relative to control
[28] = Inhibition of copper-induced amyloid beta (1 to 42) (unknown origin) aggregation measured after 24 hrs by TEM analysis
[29] = Disaggregation of Copper-induced amyloid beta (1 to 42) (unknown origin) preformed fibrils measured after 48 hrs by TEM analysis
[30] = target: T3, Cholinesterase; assay: Pseudo-irreversible inhibition of human serum BChE assessed as enzyme recovery activity at 0.1 times IC50 using diluted compound relative to control; type: cell-free; design: scale not given: the % may be the effect or the level left
[31] = target: T3, Cholinesterase; assay: Pseudo-irreversible inhibition of human serum BChE assessed as enzyme recovery activity at IC50 using undiluted compound relative to control; type: cell-free; design: scale not given: the % may be the effect or the level left
[32] = species on record: Danio rerio; assay: Antialzheimer activity against 3 dpf zebrafish model of AlCl3-induced AD assessed as change in motility distance at 8 uM (reference value: 5204 mm); type: functional
[33] = species on record: Danio rerio; assay: Antialzheimer activity against 3 dpf zebrafish model of AlCl3-induced AD assessed as efficacy on motility distance at 8 uM relative to control; type: functional
[34] = species on record: Danio rerio; assay: Antialzheimer activity against 3 dpf zebrafish model of AlCl3-induced AD assessed as motility by measuring change in speed at 8 uM (reference value: 1.05 mm/s); type: functional
[35] = species on record: Danio rerio; assay: Antialzheimer activity against 3 dpf zebrafish model of AlCl3-induced AD assessed as efficacy on speed change at 8 uM relative to control; type: functional
[36] = target: T3, Cholinesterase; assay: Pseudo-irreversible inhibition of human serum BChE assessed as enzyme recovery activity at IC50 using diluted compound relative to control; type: cell-free; design: scale not given: the % may be the effect or the level left
[37] = target: T2, Acetylcholinesterase; assay: Pseudo-irreversible inhibition of human erythrocytes AChE assessed as enzyme recovery activity at 0.1 times IC50 measured at 120 mins using diluted compound relative to control; type: tissue-based; design: scale not given: the % may be the effect or the level left; settings: Erythrocyte
[38] = target: T3, Cholinesterase; assay: Pseudo-irreversible inhibition of human serum BChE assessed as enzyme recovery activity at 0.1 times IC50 measured immediately using diluted compound; type: cell-free; design: scale not given: the % may be the effect or the level left
[39] = system: Mus musculus; assay: Cognitive enhancing effect in scopolamine-induced Kunming mouse model of memory impairment assessed as effect on total arm entries at 6 mg/kg by Y-maze test; type: functional, organism-based
[40] = system: Mus musculus; assay: Reversal of scopolamine-induced Kunming mouse model of memory impairment assessed as spontaneous alteration at 6 mg/kg by Y-maze test (reference value: 41.6 %); type: functional

Sequence of Amyloid-beta precursor protein (Homo sapiens) (P05067 whole entry): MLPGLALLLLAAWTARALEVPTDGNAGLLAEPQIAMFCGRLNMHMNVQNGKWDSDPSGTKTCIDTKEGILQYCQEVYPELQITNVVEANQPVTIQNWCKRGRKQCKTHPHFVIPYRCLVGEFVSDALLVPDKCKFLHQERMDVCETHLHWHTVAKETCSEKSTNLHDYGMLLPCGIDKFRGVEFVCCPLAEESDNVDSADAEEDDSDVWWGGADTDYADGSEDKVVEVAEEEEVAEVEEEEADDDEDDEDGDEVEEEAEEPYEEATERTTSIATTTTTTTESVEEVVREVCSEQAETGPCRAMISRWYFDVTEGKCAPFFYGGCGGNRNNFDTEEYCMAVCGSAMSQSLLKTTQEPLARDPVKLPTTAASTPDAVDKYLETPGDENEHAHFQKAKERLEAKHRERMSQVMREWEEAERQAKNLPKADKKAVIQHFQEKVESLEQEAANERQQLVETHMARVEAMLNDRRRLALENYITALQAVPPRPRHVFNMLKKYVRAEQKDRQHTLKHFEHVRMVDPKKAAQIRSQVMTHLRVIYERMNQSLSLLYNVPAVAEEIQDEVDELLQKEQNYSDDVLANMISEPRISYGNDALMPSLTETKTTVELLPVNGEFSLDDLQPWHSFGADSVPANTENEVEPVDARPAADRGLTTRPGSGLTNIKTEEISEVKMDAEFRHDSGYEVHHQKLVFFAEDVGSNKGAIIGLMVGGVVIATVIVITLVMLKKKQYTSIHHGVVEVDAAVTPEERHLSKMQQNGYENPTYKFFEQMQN
T3 sequence (P06276 whole entry): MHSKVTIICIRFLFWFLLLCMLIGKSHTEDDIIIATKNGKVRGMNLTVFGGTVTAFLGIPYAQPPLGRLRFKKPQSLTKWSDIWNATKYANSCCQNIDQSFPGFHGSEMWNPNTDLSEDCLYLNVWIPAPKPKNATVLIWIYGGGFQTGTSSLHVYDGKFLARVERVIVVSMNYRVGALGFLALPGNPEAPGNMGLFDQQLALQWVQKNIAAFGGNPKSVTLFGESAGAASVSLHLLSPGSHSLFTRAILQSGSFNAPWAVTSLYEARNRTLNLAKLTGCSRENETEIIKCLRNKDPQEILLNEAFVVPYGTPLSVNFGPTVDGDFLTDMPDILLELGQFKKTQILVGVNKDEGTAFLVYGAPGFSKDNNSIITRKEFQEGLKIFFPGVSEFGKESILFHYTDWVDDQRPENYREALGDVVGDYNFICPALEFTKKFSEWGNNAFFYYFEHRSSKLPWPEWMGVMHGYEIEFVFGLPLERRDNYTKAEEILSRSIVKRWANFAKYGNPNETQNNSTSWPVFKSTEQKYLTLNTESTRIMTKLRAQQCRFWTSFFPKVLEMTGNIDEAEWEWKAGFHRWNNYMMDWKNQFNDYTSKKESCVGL
T2 sequence (P22303 whole entry): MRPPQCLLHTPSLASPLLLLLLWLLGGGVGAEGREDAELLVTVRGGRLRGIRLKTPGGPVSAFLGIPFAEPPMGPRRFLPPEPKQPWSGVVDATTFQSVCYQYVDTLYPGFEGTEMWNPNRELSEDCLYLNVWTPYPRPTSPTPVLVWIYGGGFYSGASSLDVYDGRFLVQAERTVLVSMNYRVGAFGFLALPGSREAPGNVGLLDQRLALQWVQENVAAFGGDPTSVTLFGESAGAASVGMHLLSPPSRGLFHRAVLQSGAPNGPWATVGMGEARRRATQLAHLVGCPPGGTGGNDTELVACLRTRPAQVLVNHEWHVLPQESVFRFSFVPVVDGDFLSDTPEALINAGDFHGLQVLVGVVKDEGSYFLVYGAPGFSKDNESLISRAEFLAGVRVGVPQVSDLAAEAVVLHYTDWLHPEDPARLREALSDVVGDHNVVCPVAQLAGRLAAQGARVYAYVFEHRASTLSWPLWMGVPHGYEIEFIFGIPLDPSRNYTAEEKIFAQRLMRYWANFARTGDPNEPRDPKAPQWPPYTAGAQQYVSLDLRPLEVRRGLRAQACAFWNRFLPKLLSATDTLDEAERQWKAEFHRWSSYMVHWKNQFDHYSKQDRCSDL
Sequence of Butyrylcholinesterase (Q9JKC1 whole entry): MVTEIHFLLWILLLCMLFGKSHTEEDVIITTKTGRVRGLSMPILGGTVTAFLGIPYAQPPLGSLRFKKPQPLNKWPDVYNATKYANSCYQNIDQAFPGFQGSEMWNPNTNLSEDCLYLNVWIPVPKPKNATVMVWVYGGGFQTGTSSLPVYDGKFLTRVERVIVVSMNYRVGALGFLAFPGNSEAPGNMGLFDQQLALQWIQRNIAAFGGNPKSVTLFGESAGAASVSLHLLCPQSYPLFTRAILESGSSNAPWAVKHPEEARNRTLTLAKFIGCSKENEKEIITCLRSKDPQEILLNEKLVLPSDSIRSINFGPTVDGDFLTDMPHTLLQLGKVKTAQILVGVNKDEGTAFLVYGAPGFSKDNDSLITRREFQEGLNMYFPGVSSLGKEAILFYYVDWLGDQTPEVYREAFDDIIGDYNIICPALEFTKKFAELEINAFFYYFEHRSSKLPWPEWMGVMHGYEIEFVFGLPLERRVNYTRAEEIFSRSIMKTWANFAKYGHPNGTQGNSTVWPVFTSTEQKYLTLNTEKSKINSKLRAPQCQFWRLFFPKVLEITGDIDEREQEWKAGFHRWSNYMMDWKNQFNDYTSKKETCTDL

Structure (SMILES) | Activity [1] | IC50 [2] | IC50 [3] | inhibition [6] | also measured
CON(C)C(=O)Oc1ccc(-c2cc(=O)c3c(OC(=O)N(C)OC)cc(OC(=O)N(C)OC)cc3o2)cc1 | 0.2 equiv | 6 µM | 18.2 µM | 36% | IC50 [4]: 12.7 µM; IC50 [5]: 24.3 µM
O=c1cc(-c2ccc(O)cc2)oc2cc(O)cc(O)c12 [APIGENIN] | 5.2 equiv | > 500 µM | > 500 µM |  | Papp at 100 ug/ml [7]: 1.68 ×10⁻⁶ cm/s
O=C(Oc1ccc(-c2cc(=O)c3c(O)cc(OC(=O)N4CCCC4)cc3o2)cc1)N1CCCC1 | 1.2 equiv | 13.7 µM | 26.9 µM | 73.7% | 
O=C(Oc1ccc(-c2cc(=O)c3c(O)cc(OC(=O)N(c4ccccc4)c4ccccc4)cc3o2)cc1)N(c1ccccc1)c1ccccc1 | 1 equiv | 31.9 µM | 37.6 µM | 70.9% | 
O=C(Oc1ccc(-c2cc(=O)c3c(O)cc(OC(=O)N4CCOCC4)cc3o2)cc1)N1CCOCC1 | 1.1 equiv | 11.5 µM | 18.6 µM | 71.5% | 
CON(C)C(=O)Oc1ccc(-c2cc(=O)c3c(O)cc(OC(=O)N(C)OC)cc3o2)cc1 | 1.1 equiv | 6.8 µM | 17.2 µM | 76.8% | IC50 [4]: 10.2 µM; IC50 [5]: 22.6 µM
CN(C)C(=O)Oc1ccc(-c2cc(=O)c3c(OC(=O)N(C)C)cc(OC(=O)N(C)C)cc3o2)cc1 | 0.2 equiv | 8.3 µM | 23.1 µM | 38.3% | 
CN(C)C(=O)Oc1ccc(-c2cc(=O)c3c(O)cc(OC(=O)N(C)C)cc3o2)cc1 | 1.1 equiv | 9.2 µM | 23.7 µM | 79.2% | 
O=C(Oc1ccc(-c2cc(=O)c3c(OC(=O)N4CCOCC4)cc(OC(=O)N4CCOCC4)cc3o2)cc1)N1CCOCC1 | 0.2 equiv | 10.2 µM | 23.8 µM | 31.2% | 
Cc1c(C)c2c(c(C)c1O)CCC(C)(C(=O)O)O2 (stereo not given) [TROLOX] |  |  |  |  | Activity [8]: Active; Activity [9]: 68.8%
CCN(C)C(=O)Oc1ccc(-c2cc(=O)c3c(OC(=O)N(C)CC)cc(OC(=O)N(C)CC)cc3o2)cc1 | 0.1 equiv | 5.1 µM | 16.2 µM | 35.1% | IC50 [4]: 9.2 µM; IC50 [5]: 19.5 µM; Activity [10]: 40.6%; inhibition [11]: Active; Activity [12]: Active; Activity [13]: Non-Toxic; Activity [14]: inactive; Activity [15]: inactive; Activity [16]: inactive; Activity [17]: inactive; viability at 72 h, 6.25 µM [18]: 98%; viability at 72 h, 12.5 µM [19]: 98.5%; viability at 72 h, 25 µM [20]: 89.8%; viability at 72 h, 50 µM [21]: 69.2%; viability at 10 µM [22]: 62.7%; Papp at 100 ug/ml [7]: 19.2 ×10⁻⁶ cm/s; Drug metabolism [23]: Metabolite_Detected; Drug metabolism [24]: Metabolite_Detected; Drug metabolism [25]: Metabolite_Detected
COc1cc(/C=C/C(=O)CC(=O)/C=C/c2ccc(O)c(OC)c2)ccc1O |  |  |  |  | inhibition [26]: 53.6%; Activity [27]: 56.1%; inhibition [28]: Active; Activity [29]: Active
CCN(CC)C(=O)Oc1ccc(-c2cc(=O)c3c(O)cc(OC(=O)N(CC)CC)cc3o2)cc1 | 1.2 equiv | 7.8 µM | 16.4 µM | 77.8% | 
COc1cc2c(cc1OC)C(=O)C(CC1CCN(Cc3ccccc3)CC1)C2 (stereo not given) [DONEPEZIL] |  |  |  |  | Activity [30]: 60.3%; Activity [31]: 49.6%; Activity [32]: 6361 mm; Efficacy [33]: 55%; Activity [34]: 1.91 millimeter/sec; Efficacy [35]: 66%
CCN(C)C(=O)Oc1cccc([C@H](C)N(C)C)c1 [RIVASTIGMINE] |  |  |  |  | Activity [36]: 58.3%; Activity [30]: 43.2%; Activity [37]: 81.4%; Activity [38]: 43.2%; Activity [39]: inactive; Activity [40]: 64.6%
